Assay results from patent publication US12162997B2, “Facile assembly of soft nanoarchitectures and co-loading of hydrophilic and hydrophobic molecules via flash nanoprecipitation” (Northwestern University, priority 2016, dated 2024).
Read-outs that look alike come from different tables or passages of the source.

Legend:
[1] = Loading efficiency of cargo into polymersomes by fluorescence; assay type: physicochemical; conditions: FNP, single cargo, FIG. 4A
Method: The loading efficiency of the target molecule in the nanocarriers by the methods of the present invention is measured as the ratio of target molecule encapsulated within the nanocarrier to the total amount of target molecule available for loading in the initial solution. The loading efficiency is typically greater than about 40% for both proteins and hydrophobic molecules (i.e., […], about 40%, about 45%, about 50%, about 60%, about 70%, about 80%, about 85%, about 90%, or any percentages in between). In some embodiments of the invention, the loading efficiency is greater than at least 45%.
Nanocarriers were formed using the confined impingement jets (CIJ) mixer described by Han et al. PEG-bl-PPS copolymers and hydrophobic molecules to be loaded within polymersomes were dissolved in 500 μL of tetrahydrofuran (THF) and placed into a 1 mL plastic disposable syringe. […] For fluorescence measurements, samples were taken both before and after column purification to assess loading efficiency. […]
Fluorescence and absorbance measurements were taken on a SpectraMax M3 microplate reader (Molecular Devices). All readings were taken in black-walled clear bottom 96-well plates (Corning 07-200-567), at 100 μL volumes. All readings were normalized to a 100 μL 1×PBS blank control. […] NBT diformazan was detected via absorbance at 620 nm.

[2] = ZINC15 database, cited from earlier work

| loading efficiency into polymersomes [1] | Structure (SMILES) | logP Values [2] | logP Values ([2]; listed as calcein) |
| --- | --- | --- | --- |
| very high loading efficiencies | CCOC(=O)c1ccccc1-c1c2cc(Br)c(=O)c(Br)c-2oc2c(Br)c([O-])c(Br)cc12.[K+] [Ethyl Eosin, ethyl eosin] |  |  |
| lowest loading efficiency | O=C(O)CN(CC(=O)O)Cc1cc2c(cc1O)Oc1cc(O)c(CN(CC(=O)O)CC(=O)O)cc1C21OC(=O)c2ccccc21 [Calcein, calcein] | 1.608 | 1.6 |
|  | CO[C@H]1C[C@@H]2CC[C@@H](C)[C@@](O)(O2)C(=O)C(=O)N2CCCC[C@H]2C(=O)O[C@H]([C@H](C)C[C@@H]2CC[C@@H](O)[C@H](OC)C2)CC(=O)[C@H](C)/C=C(\C)[C@@H](O)[C@@H](OC)C(=O)[C@H](C)C[C@H](C)/C=C/C=C/C=C/1C [Rapamycin, rapamycin] | 6.181 |  |
